How the values were obtained:
[1] = system: rat ovarian granulosa cells; test: Rat ovarian granulosa cell cAMP levels in vitro (cAMP RIA of conditioned media); format: cell-based; conditions: 25 micromolar compound with sub-effective (0.1 pM) gonadotropin, 48 hrs, FIG. 2
Experimental: Ovaries were removed from immature 25 day old, hypophysectomized, diethylstilbesterol treated Sprague-Dawley rats. The ovaries were repeatedly punctured with 27 gauge needles to liberate granulosa cells from the follicles. Cells were washed and re-suspended in McCoys SA media+0.1% BSA+2 μM androstenedione. Viable cells in number of 100,000 were loaded into 6-well tissue culture dishes in a 1.0 ml volume (with Compound 1 and Compound 2 at a concentration of 25 micromolar, either alone or in conjunction with a low, 0.1 pM dose of gonadotropin). Plates were incubated in a 37° C. incubator, 100% humidity, 5.0% CO2 for 48 hrs. Conditioned media were assayed in a cAMP specific radioimmunoassay (RIA). Results are expressed as mean plus or minus standard deviations.

immature female rats [2] = test: In vivo ovulation model: FSH-matured follicles in immature rats, oocytes in oviduct counted 18 hours after administration; parameters: species or system rat; conditions: FSH pretreated rats
Excerpt: The role of FSH in any ovulation induction regimen is for promoting follicular development and maturation, not ovulation induction.
All injections were subcutaneous. Results are expressed as mean plus or minus standard deviations. […] The effects of Compound 1, a known PDE inhibitor, are shown.
Data represent average number of oocytes in oviducts of all rats in each group and frequency of ovulating rats. […] Results are expressed as mean plus or minus standard deviations.
Data represent average number of oocytes in oviducts of all rats in each group and frequency of ovulating rats. Results are expressed as mean plus or minus standard deviations.
Following FSH induced follicular maturation (2.16 IU/rat/injection; bid×2 days) Compound 2 was either injected subcutaneously (subcutis) or administered by oral gavage. Ovulation was determined 18 hours after Compound 2 administration by counting oocytes in oviduct. Data represent average number of oocytes in oviducts of all rats in each group and frequency of ovulating rats. Results are expressed as mean plus or minus standard deviations.
Following FSH induced follicular maturation (2.16 IU/rat/injection; bid×2 days) […] was either injected subcutaneously (subcutis) or administered by oral gavage. Ovulation was determined 18 hours after Compound 2 administration by counting oocytes in oviduct. Data represent average number of oocytes in oviducts of all rats in each group and frequency of ovulating rats. Results are expressed as mean plus or minus standard deviations.

immature female rats [3] = test: Follicle maturation in vivo: co-administration with sub-optimal FSH, then ovulatory hCG, oocytes in oviduct counted; parameters: species or system rat; conditions: FIG. 3
Experimental: Mature ovarian follicles generated in immature female rats by treatment with a sub-optimal dose of FSH (1.08 IU/rat/injection; bid×3 days) with and without co-administration of Compound 1 (0.1, 1, 10, and 50 mg/kg/injection: bid×3 days). […] The PDE inhibitors were given in conjunction with sub-optimal doses of FSH.
All injections were subcutaneously administered. […] Results are expressed as mean plus or minus standard deviations. […] As also noted in FIG. 3, a PDE inhibitor (Compound 1) inhibited (rather than stimulated) both ovulation administered at 50 mg/kg.

immature rats = test: Ovulation and fertility in FSH/PMSG pretreated immature rats; format: in vivo, rat; conditions: single subcutaneous injection, FIG. 10
Experimental: Follicular maturation was induced in immature rats with FSH (4.33 IU/rat/injection; bid×2 days) and Pregnant Mare's Serum Gonadotropin (PMSG) (1.5 IU/rat/injection; bid X 2 days). […] FSH and PMSG induced rats were then treated with either Compound 2 (12 rats) or vehicle (12 rats) by subcutaneous administration. In one cohort of rats (6 rats per treatment), ovulation was determined 18 hours after Compound 2 or vehicle administration by counting oocytes in oviduct. To assess fertility, another cohort of rats (6 rats per treatment) were individually placed overnight in a cage together with a single adult male rat of proven fertility. The next day, male rats were removed and the females were caged together by group until the day of parturition. The number of live full-term pups observed at the time of parturition was recorded. […] Results for both ovulation and live pups are expressed as mean plus or minus standard deviations.

[4] = single subcutaneous injection co-administered with sub-effective dose of hCG
[5] = subcutaneous, compound alone without hCG
[6] = oral gavage, compound alone without hCG

SMILES | cAMP levels [1] | ovulation (oocytes in oviduct) (immature female rats [2]; [4]) | ovulation (oocytes in oviduct) (immature female rats [2]; [5]) | ovulation (oocytes in oviduct) (immature female rats [3]; 50 mg/kg/injection bid x 3 days s.c. with sub-optimal FSH (1.08 IU), ovulatory hCG 20 IU) | ability of a sub-optimal dose of FSH to prepare follicles to ovulate (immature female rats [3]; increasing doses 0.1, 1, 10, 50 mg/kg/injection bid x 3 days s.c.) | ovulation (oocytes in oviduct) (immature female rats [2]; [6]) | number of live full-term pups at parturition (immature rats; FSH/PMSG pretreated rats mated overnight) | ovulation (oocytes in oviduct) (immature rats; FSH/PMSG pretreated rats, 18 hours)
COc1ccc([C@]2(C#N)CC[C@@H](C(=O)O)CC2)cc1OC1CCCC1 [Compound 1, Cis-4-cyano-4-(3-(cyclopentyloxy)-4-methoxyphenyl)cyclohexane-1-carboxylic acid] | significant increase in cAMP levels | induction of ovulation | induction of ovulation | inhibited | failed to enhance | – | – | –
COc1ccc(C(=O)Nc2c(Cl)cncc2Cl)cc1OC1CCCC1 [Compound 2, 3-(Cyclopentyloxy)-N-(3,5-dichloropyridin-4-yl)-4-methoxybenzamide] | significant increase in cAMP levels | – | induction of ovulation | – | – | induction of ovulation | increased number of live pups | induction of ovulation
CCOc1cc2cc(CO)c(CO)c(-c3ccnc(-n4nc(-c5cccnc5)c5ccccc5c4=O)c3)c2cc1OCC.Cl [Compound 3, 2-(4-(6,7-Diethoxy-2,3-bis(hydroxymethyl)naphthalen-1-yl)pyridin-2-yl)-4-(3-pyridyl)pthalazin-1(2H)-one hydrochloride] | – | – | induction of ovulation | – | – | induction of ovulation | – | –
Clc1nc2c(N3CCCC3)nc(N3CCNCC3)nc2nc1NCc1ccccc1 [Compound 4, 7-Benzylamino-6-chloro-2-piperazino-4-pyrrolidinopteridine] | – | induction of ovulation | little or no ovulation | – | – | – | – | –
